# “And” between values parts separate entries of the source, which are not always exact repeats. Equal entries are not always repeated.
# Columns and labels:
# Assay type in all cases: physicochemical
# [1] = crystal form I stability test (HPLC purity and XRPD after storage); details: for chemical and physical stability (result in words): 40° C./75% RH and 60° C. for 14 days, HPLC purity and XRPD
# Protocol: X-ray powder diffractometer: Bruker D8 advance X, the radiation source is Cu-Ku, the scanning range of the test is 3° (2θ)˜40° (2θ), the scanning step size is 0.02° (2θ), and the scanning rate is 0.3 sec/step. HPLC (purity determination): Waters Acquity Arc liquid chromatography system or any equivalent; Column: EclipsexDB C18, 4.6×150 mm, 3.5 μm, or any equivalent; Column temperature: 30° C.; detection wavelength: 210 nm; mobile phase A: 0.05% trifluoroacetic acid aqueous solution; mobile phase B: 0.05% trifluoroacetic acid acetonitrile solution; concentration gradient running time: 20 minutes. Two samples of the crystal form I were placed under the conditions of 40° C./75% relative humidity (RH), and the temperature in the oven was 60° C. (with humidity not controlled) for 14 days.
# [2] = dynamic vapor sorption (DVS) test; details: for hygroscopicity (result in words): DVS
# Text: Dynamic Vapor Sorption (DVS) is a common method to investigate the moisture adsorption of drugs, excipients or packaging materials through a dynamically accelerated moisture adsorption process. The moisture adsorption isotherm is usually used to describe the degree of correlation between the moisture content of the sample and the relative humidity during the moisture adsorption process of the sample. DVS patterns can be measured, for example, on a model IGAsorp instrument. In one embodiment, the dynamic vapor sorption pattern of the crystal form I is determined by the following method: DVS dynamic vapor sorption instrument: IGAsorp; temperature: 25° C.; temperature stability: 0.1° C./min; carrier gas: nitrogen; flow rate: 250 mL/min; scanning: 2; minimum time: 30 min; maximum time: 2 hours; upper waiting limit: 98%; humidity gradient: adsorption: 0, 10, 20, 30, 40, 50, 60, 70, 80, 90; desorption: 80, 70, 60, 50, 40, 30, 20, 10, 0. DVS Dynamic Vapor Sorption Apparatus: IGAsorb, the temperature is 25° C., the temperature stability: 0.1° C./min, the carrier gas is nitrogen, the flow rate is 250 mL/min, scanning: 2, the minimum time is 30 min, the maximum time is 2 hours, the upper waiting limit is 98%, humidity gradient: adsorption: 0, 10, 20, 30, 40, 50, 60, 70, 80, 90; desorption: 80, 70, 60, 50, 40, 30, 20, 10, 0.
# [3] = thermogravimetric analysis (TGA) test; details: heated to 200° C.
# Text: Thermogravimetric analysis (TGA) is a common method for determining the thermal stability of compounds. Herein, TGA is also used to determine the hydration state of a compound. The rate of temperature rise during the test have a certain impact on the pattern. For example, an excessively high rate of temperature rise is not conducive to the detection of intermediate products. TGA patterns can be measured, for example, on a model TA TGA Q500 instrument. In one embodiment, the thermogravimetric analysis pattern of the crystal form I is determined by the following method: TGA thermogravimetric analyzer: TA TGA Q500; temperature range: room temperature ˜350° C.; scanning rate: 10° C./min; protective gas: nitrogen; flow rate: 40 mL/min (balance) or […] (sample). TGA Thermogravimetric Analyzer: TA TGA Q500, temperature range is from room temperature to 350° C., scanning rate is 10° C./min, the protective gas is nitrogen, and the flow rate is 40 mL/min (balance) or 60 mL/min (sample).
# [4] = particle size distribution (PSD) test
# Protocol: In one embodiment, the particle size distribution (PSD) of the crystal form I is determined using a Malvern Mastersizer 2000. The parameters used may be: pump speed: 2500 rpm; dispersant volume: 800 mL; dispersant: water; dispersion medium: 1% Tween 80. Crystal form I is a granular crystal, and the particle size is 50-100 μm observed under a microscope (Nikon Eclipse LV100POL). The particle size distribution (PSD) of the crystal form I was determined using a Malvern Mastersizer 2000. Pump speed: 2500 rpm; Dispersant volume: 800 mL; Shielding degree: 10%-20%; Dispersant: water; Dispersion medium: 1% Tween 80; Background measurement: 12s; Sample measurement: 12s; Measurement cycle: 3.
# [5] = powder properties (bulk density, tap density, Carr index, angle of repose)
# [6] = test of stability against mechanical treatment (grinding, XRPD); details: ground in a mortar for 2 min and 5 min
# Protocol: In one embodiment, the stability of the crystal form I against mechanical treatment is determined by the following method: the crystal form I is placed in a mortar, ground for 2 min and 5 min respectively, and XRPD detection is carried out to analyze the solid after grinding. The crystal form I was placed in a mortar, ground for 2 min and 5 min, respectively, and XRPD detection was carried out to analyze the solid after grinding.
# [7] = Malvern Mastersizer 2000, dispersant water, 1% Tween 80
structure (smiles),measurement,setting,value
COc1cc2c(C)c(CC(=O)N3CCOCC3)c(=O)oc2c(C=O)c1O [crystal form I],chemical and physical stability (result in words),[1],good chemical and physical stability
same,chemical and physical stability (result in words),[1]; listed as Orin1001 crystal form I,excellent stability
same,HPLC purity: peak area %,"[1]; 40° C./75% RH, the 7th day",99.62% and 99.54%
same,HPLC purity: peak area %,"[1]; 40° C./75% RH, the 14th day",99.54% and 99.56%
same,HPLC purity: peak area %,"[1]; 60° C. (in oven), humidity not controlled, the 7th day",99.64% and 99.58%
same,HPLC purity: peak area %,"[1]; 60° C. (in oven), humidity not controlled, the 14th day",99.52% and 99.54%
same,HPLC purity: peak area %,[1]; TO column of the 7th day table,99.60% and 99.58%
same,HPLC purity: peak area %,[1]; TO column of the 14th day table,99.53% and 99.54%
same,hygroscopicity (result in words),[2]; 25° C.,only slightly hygroscopic
same,hygroscopicity (result in words),"[2]; 25° C., listed as Orin1001 crystal form I",slightly hygroscopic
same,crystal form after DVS measurement (XRPD),[2]; XRPD before and after DVS,did not change
same,weight gain (DVS),"[2]; after equilibration at 90% relative humidity, 25° C.",0.34%
same,weight loss (TGA),[3],about 0.017%
same,D(0.1),[4]; [7],67.1 μm
same,D(0.5),[4]; [7],115.5 μm
same,D(0.9),[4]; [7],206.4 μm
same,particle size observed under a microscope,[4]; Nikon Eclipse LV100POL,50-100 μm
same,Carr index,[5],20%
same,angle of repose,[5],30.6 °
same,bulk density,[5],0.72 g/mL
same,fluidity (result in words),[5],very good
same,tap density,[5],0.90 g/mL
same,crystal form after grinding (XRPD),[6],the crystal form does not change

# From US20230067666A1, “METHOD FOR PREPARING COUMARIN COMPOUNDS SUBSTITUTED BY AMIDOALKYL AT 3-POSITION, THE PRODUCTS AND RELATED INTERMEDIATES THEREOF” (Fosun Orinove PharmaTech, Inc., priority 2019, published 2023)
